From PubChem BioAssay (NCI)
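Where inhibition never reached the appropriate level, the endpoint shown equals the highest concentration tested. Otherwise, values were interpolated linearly from a five-concentration, 48-hour dose response in 96-well plates. TGI: concentration producing complete growth inhibition.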

Legend:
Assay in all cases: DTP human tumour cell line panel, 48 h
[1] = system: DLD-1 colon
[2] = system: DMS 114 small cell lung
[3] = system: DMS 273 small cell lung
[4] = system: HOP-18 NSCLC
[5] = system: LXFL 529 NSCLC
[6] = system: M19-MEL melanoma
[7] = system: RXF-631 renal
[8] = system: SNB-78 CNS
[9] = system: XF 498 CNS

Compound	TGI [1]	TGI [2]	TGI [3]	TGI [4]	TGI [5]	TGI [6]	TGI [7]	TGI [8]	TGI [9]
COc1ccc2c3c(n(Cc4ccccc4)c(=O)c2c1)-c1cc(OC)c(OC)cc1C3C (stereo not drawn)	> 100 µM	> 89.2 µM	38.6 µM	> 100 µM	> 53 µM	> 73.1 µM	> 100 µM	> 100 µM	38 µM
CC1(C)CC(=O)C2=C(C1)S/C(=C1/SC3=C(S1)C(=O)CC(C)(C)C3)S2	> 251 µM	> 251 µM	> 251 µM	> 251 µM	> 251 µM	> 251 µM		> 251 µM	> 251 µM
N#C/C(=C\c1ccc(O)c(O)c1)C(=O)NC1CCC(CC2CCC(NC(=O)/C(C#N)=C/c3ccc(O)c(O)c3)CC2)CC1 (stereo not drawn)	> 40.4 µM		0.832 µM	> 100 µM	28.1 µM	5.23 µM		5.37 µM	16.5 µM
CC(O)C(N=Cc1nc(-c2ccccc2)oc1O)C(=O)O (stereo not drawn)	> 100 µM	> 100 µM	> 100 µM	> 100 µM	> 100 µM	> 100 µM	> 100 µM	> 100 µM	> 100 µM
CCCCCCCCOC(CO)CO	> 100 µM	> 100 µM	> 100 µM	> 100 µM	> 100 µM	> 100 µM			
O=C(O)Cc1cccc2c1Oc1ccccc1S2	> 100 µM	> 100 µM	> 100 µM		> 100 µM	> 100 µM		> 100 µM	
CC(=O)C1=C(C)Cn2c(=O)c3ccccc3c(=O)n2C1	> 100 µM	> 100 µM	> 100 µM		> 100 µM	> 100 µM	> 100 µM		
CC(Oc1ccc(OCC2CCCCC2)cc1)C(N)=O (stereo not drawn)	> 100 µM	> 100 µM	> 100 µM	> 100 µM	> 100 µM	> 100 µM		> 100 µM	> 100 µM
NNC(=S)N/N=C(/C(=O)Nc1cc(Cl)ccc1Cl)C1C(=O)Nc2ccccc2S1=O (stereo not drawn)	> 100 µM	> 100 µM		> 100 µM	> 100 µM	> 100 µM		> 100 µM	> 100 µM
CC1(C)OC(C[C@]2(C#N)C[C@H](CCl)OC(C)(C)O2)C[C@@H](C[C@]2(C#N)C[C@H](CCl)OC(C)(C)O2)O1 (stereo partly drawn)	> 100 µM		> 100 µM	> 100 µM	> 100 µM	> 100 µM		> 100 µM	> 100 µM
COc1cc(-c2cc(=O)c3c(O)c(OC)c(OC)c(OC)c3o2)ccc1O	> 100 µM	77.8 µM	30.5 µM	> 100 µM	> 100 µM	> 100 µM		70.1 µM	
Cc1c(-c2nnc(-c3ccc(Cl)cc3)o2)c(=O)n(-c2ccccc2)n1C	> 100 µM	> 100 µM	> 100 µM	> 100 µM	> 100 µM	> 100 µM		> 100 µM	> 100 µM
O=C(c1ccccc1)c1ccc(OCCOc2ccc(Nc3ccccc3)cc2)cc1	> 100 µM	> 100 µM	> 100 µM	> 100 µM	> 100 µM	> 100 µM	82.8 µM	> 100 µM	48.4 µM
CC(=O)c1cccc(NC(=O)C(=O)C(C2OC(=O)c3ccccc32)[N+](=O)[O-])c1 (stereo not drawn)	> 100 µM	> 100 µM			> 100 µM	> 100 µM	> 100 µM	> 100 µM	> 100 µM
CCOC(=O)c1cc2c(nc1N)-c1ncccc1CC2	> 100 µM	33 µM	> 100 µM	> 100 µM	> 100 µM	> 100 µM	> 100 µM	> 100 µM	
CCCc1c[nH]c(-c2ccc(-c3cc(CCC)c(C=O)[nH]3)s2)c1	28.4 µM	27.8 µM	30.3 µM	43 µM	32.8 µM	21.6 µM		37.2 µM	32.7 µM
CCSC1(SCC)CC(Cc2ccc(OC)cc2)N(C=NC(C)(C)C)C1 (stereo not drawn)	> 100 µM	43.4 µM	> 100 µM	> 100 µM	93.6 µM	97.7 µM		> 100 µM	38.9 µM
